Results: US12318373B2, “Methods of treating gastrointestinal stromal tumors” (Deciphera Pharmaceuticals, LLC, priority 2019, dated 2025)

Key:
advanced GIST = assay: Example 2: randomized, double-blind, placebo-controlled study, efficacy (PFS, ORR, OS); format: in vivo, human; conditions: for PFS by BICR: events, % / PFS by BICR: number of events: N = 85
Text: Example 2. A Randomized, Double-blind, Placebo-controlled, International, Multicenter Study to Evaluate the Safety, Tolerability, and Efficacy of Ripretinib Compared to Placebo in Patients with Advanced GIST Whose Previous Therapies Have Included Imatinib, Sunitinib, and Regorafenib
This study was a randomized (2:1), double-blind, placebo-controlled, international, multicenter study to evaluate the safety, tolerability, and efficacy of ripretinib compared to placebo in 129 patients with advanced GIST whose previous therapies have included at least imatinib, sunitinib, and regorafenib. Patients were randomized 2:1 to either 150 mg of ripretinib or placebo once daily. The primary efficacy endpoint is progression-free survival (PFS) as determined by independent radiologic review using modified Response Evaluation Criteria in Solid Tumors (RECIST). Secondary endpoints as determined by independent radiologic review using modified RECIST include Objective Response Rate (ORR), Time to Tumor Progression (TTP) and Overall Survival (OS).
Patients whose disease progressed during the double blind phase of the study were escalated to 150 mg BID ripretinib, continued at the 150 mg QD dose, or discontinued in an open label-phase of the study.

[1] = Example 9: food effect (high-fat meal) on exposure; format: in vivo
Description: The effect of a high-fat breakfast on ripretinib and Compound A exposure was evaluated. A high fat meal consisted of approximately 150, 250, and 500-600 calories from protein, carbohydrate, and fat, respectively. […] Therefore, ripretinib may be taken with or without food at approximately same time each day.

[2] = 150 mg once daily, BICR, modified RECIST 1.1
[3] = 150 mg dose with a high-fat meal

## CCn1c(=O)c(-c2cc(NC(=O)Nc3ccccc3)c(F)cc2Br)cc2cnc(NC)cc21 [ripretinib]
Advanced GIST; 150 mg QD, FIGS. 17A, 17B
  Benefit over placebo (PFS, OS), primary Exon 11 and Exon 9 mutation: derive a benefit
Advanced GIST; 150 mg once daily
  OS hazard ratio (HR) vs placebo: 0.36
  OS rate at 12 months: 65.4%
  PFS hazard ratio (HR) compared to placebo: 0.15
  PFS rate at 6 months: 51%
  Patients with PD, %: 18.8%
  Patients with PD, number: 16
  Patients with stable disease (SD) for 12 weeks, number: 40
  Reduction of risk of disease progression or death compared to placebo: 85%
Advanced GIST; [2]
  Median PFS: 6.3 months
  Objective response rate (ORR): 9.4%
Advanced GIST; 150 mg once daily, initial ripretinib arm
  Median PFS: 27.6 weeks
Advanced GIST; 150 mg once daily, patients initially randomized to ripretinib
  Median OS: 15.1 months
Advanced GIST; FIG. 26A-D
  PFS compared to placebo in subgroups with Exon 9, 11, 13 or 17 KIT mutations: PFS benefit in all assessed patient subgroups
Advanced GIST; double-blind cut
  PFS by BICR: events, %: (60) %
  PFS by BICR: number of events: 51
  Median OS: 15 months
  Median PFS by BICR: 6.3 months
  OS hazard ratio: 0.36
  Overall Response Rate by BICR: 9%
  Overall Survival: deaths, %: (31) %
  Overall Survival: number of deaths: 26
  PFS by BICR: deaths, %: (6) %
  PFS by BICR: deaths, number: 5
  PFS by BICR: progressive disease, %: (54) %
  PFS by BICR: progressive disease, number: 46
  PFS hazard ratio: 0.15
Advanced GIST; open-label cut
  PFS by BICR: events, %: (75) %
  PFS by BICR: number of events: 64
  Median OS: Not Reached
  Median PFS by BICR: 6.3 months
  OS hazard ratio: 0.43
  Overall Response Rate by BICR: 12%
  Overall Survival: deaths, %: (45) %
  Overall Survival: number of deaths: 38
  PFS by BICR: deaths, %: (7) %
  PFS by BICR: deaths, number: 6
  PFS by BICR: progressive disease, %: (68) %
  PFS by BICR: progressive disease, number: 58
  PFS hazard ratio: 0.16
Advanced GIST; patients crossed over from placebo to ripretinib
  Median PFS: 20.0 weeks
Advanced GIST; patients who crossed over from placebo to ripretinib
  Median OS: 11.6 months
[1]; [3]
  AUC0-24h higher by: 30%
  Cmax higher by: 22%
[1]; based on exposure-response analysis
  Clinical significance of the food effect: not considered to be clinically significant
